# Measurements: US11027022B2, “Conjugates and conjugating reagents” (priority 2016, dated 2021)
# System: Karpas-299 cells (T-anaplastic large cell lymphoma, ALCL)
# Experiment: Karpas-299 mouse xenograft study
# Format: in vivo, CB17-SCID mice
# Conditions: single i.v. injection, 1 mg/kg, groups of eight mice
# Description: Healthy female CB17-SCID mice (CBySmn.CB17-Prkdcscida, Charles River Laboratories) with an average body weight of 17.5 g were used for cell inoculation (Day 0). 24 to 72 h prior to tumour cell injection, the mice were […] (1.44 Gy, ^60Co). The animals were maintained in SPF health status according to the FELASA guidelines in housing rooms under controlled environmental conditions.
# Tumours were induced by subcutaneous injection of 10^7 Karpas-299 cells (T-anaplastic large cell lymphoma, ALCL) in 200 μL of RPMI 1640 into the right flank. Tumours were measured twice a week with callipers, and the volume was estimated using the formula: […]
# Fourteen days after tumour implantation (Day 14), the animals were randomised into groups of eight mice using Vivo Manager® software (233 mm^3 mean tumour volume) and treatment was initiated. The animals from the vehicle group received a single intravenous (i.v.) injection of PBS. The treated groups were dosed with a single i.v. injection of ADC at either 0.5 mg/kg or 1 mg/kg.
# Treatment tolerability was assessed by bi-weekly body weight measurement and daily observation for clinical signs of treatment-related side effects. Mice were euthanized when a humane endpoint was reached (e.g. 1,600 mm^3 tumour volume) or after a maximum of 6 weeks post-dosing.
substance,measurement,value
"Adcetris®: commercially-available Adcetris® conjugate, comparative to the brentuximab-drug conjugates [reference compound]",complete responses (total reduction of tumour volume to zero),2 animals
same,mean tumour volume (result in words),increase in mean tumour volume
